{"source": "patent US10701934B2", "about": "“Synergistic weed control from applications of penoxsulam and benzobicyclon or clomazone and benzobicyclon” (Dow AgroSciences LLC, priority 2013, dated 2020)", "key": {"[1]": {"test_system": "Early Watergrass, Echinochloa oryzoides (ECHOR)", "experiment": "In-water application in transplanted rice in the greenhouse, visual weed control of ECHOR", "assay_type": "in vivo", "settings": "22 days after application, 0-100 scale", "from_the_text": "(§1) Weed seeds or nutlets of the desired test plant species were planted in puddled soil (mud) prepared by mixing a shredded, non-sterilized mineral soil (50.5 percent silt, 25.5 percent clay, and 24 percent sand, with a pH of about 7.6 and an organic matter content of about 2.9 percent) and water at a 1:1 volumetric ratio. The prepared mud was dispensed in 365 milliliter (mL) aliquots into 16-ounce (oz.) non-perforated plastic pots with a surface area of 86.59 square centimeters (cm^2) leaving a headspace of 3 centimeters (cm) in each pot. Rice seeds were planted in Sun Gro MetroMix® 306 planting mixture, which typically has a pH of 6.0 to 6.8 and an organic matter content of about 30 percent, in plastic plug trays. Seedlings at the second or third leaf stage of growth were transplanted into 860 mL of mud contained in 32-oz. non-perforated plastic pots with a surface area of 86.59 cm^2 4 days prior to herbicide application. The paddy was created by filling the headspace of the pots with 2.5 to 3 cm of water. When required to ensure good germination and healthy plants, a fungicide treatment and/or other chemical or physical treatment was applied. The plants were grown for 4-22 days in a greenhouse with an approximate 14 hour (h) photoperiod which was maintained at about 29° C. during the day and about 26° C. during the night. Nutrients were added as Osmocote® (17:6:10, N:P:K+minor nutrients) at 2 grams (g) per 16-oz. pot and 4 g per 32-oz. pot. Water was added on a regular basis to maintain the paddy flood, and supplemental lighting was provided with overhead metal halide 1000-Watt lamps as necessary. The plants were employed for testing when they reached the first through fourth true leaf stage. Treatments of penoxsulam and benzobicyclon consisted of penoxsulam and benzobicyclon, applied alone or in combination. Treatments of clomazone and benzobicyclon consisted of clomazone and benzobicyclon, applied alone or in combination. Penoxsulam was formulated as Grasp® SC, clomazone was formulated as Command® 3ME, and benzobicyclon was formulated as 3.5% flowable or as technical grade material. Treatment requirements for each compound or herbicidal component were calculated based upon the rates being tested, the concentration of active ingredient or acid equivalent in the formulation, an application volume of 2 mL per component per pot, and an application area of 86.59 cm^2 per pot. For formulated compounds, a measured amount was placed in an individual 100 or 200 mL glass vial and was dissolved in a volume of 1.25% volume per volume (v/v) Agri-Dex® crop oil concentrate to obtain application solutions. […] The results measured at 22 days following application of the compositions are provided in Table 1 (Penoxsulam and Benzobicyclon) and Table 2 (Clomazone and Benzobicyclon)."}, "[2]": {"test_system": "Purple Nutsedge, Cyperus rotundus (CYPRO)", "experiment": "In-water application in transplanted rice in the greenhouse, visual weed control of CYPRO", "assay_type": "in vivo", "settings": "22 days after application, 0-100 scale", "from_the_text": "as §1, with “Nutrients were added as Osmocote® (17:6:10, N:P:K+minor nutrients) at 2 grams (g) per 16-oz. pot and 4 g per 32-oz. pot. Water was added on a regular basis to maintain the paddy flood, and supplemental lighting was provided with overhead metal halide 1000-Watt lamps as necessary. The plants were employed for testing when they reached the first through fourth true leaf stage. Treatments of penoxsulam and benzobicyclon consisted of penoxsulam and benzobicyclon, applied alone or in combination. Treatments of clomazone and benzobicyclon consisted of clomazone and benzobicyclon, applied alone or in combination. Penoxsulam was formulated as Grasp® SC, clomazone was formulated as Command® 3ME, and benzobicyclon was formulated as 3.5% flowable or as technical grade material.” left out"}, "[3]": {"settings": "Benzobicyclon 100 g ai/ha alone"}}, "data": [{"smiles": "CS(=O)(=O)c1ccc(C(=O)C2=C(Sc3ccccc3)C3CCC(C3)C2=O)c(Cl)c1", "note": "(stereo not shown) [Benzobicyclon, 3-(2-chloro-4-mesylbenzoyl)-2-phenylthiobicyclo[3.2.1]oct-2-en-4-one]", "values": [{"measurement": "% Visual Weed Control 22DAA ECHOR Observed", "setting": "[1]; Benzobicyclon 25 g ai/ha alone", "value": 0, "unit": "%"}, {"measurement": "% Visual Weed Control 22DAA ECHOR Observed", "setting": "[1]; Benzobicyclon 50 g ai/ha alone", "value": 10, "unit": "%"}, {"measurement": "% Visual Weed Control 22DAA ECHOR Observed", "setting": "[1]; [3]", "value": 15, "unit": "%"}, {"measurement": "% Visual Weed Control 22DAA CYPRO Observed", "setting": "[2]; Benzobicyclon 50 g ai/ha alone", "value": 10, "unit": "%"}, {"measurement": "% Visual Weed Control 22DAA CYPRO Observed", "setting": "[2]; [3]", "value": 30, "unit": "%"}]}, {"smiles": "COc1cnc(OC)n2nc(NS(=O)(=O)c3c(OCC(F)F)cccc3C(F)(F)F)nc12", "note": "[Penoxsulam]", "values": [{"measurement": "% Visual Weed Control 22DAA ECHOR Observed", "setting": "[1]; Penoxsulam 10 g ai/ha alone", "value": 85, "unit": "%"}]}, {"smiles": "CC1(C)CON(Cc2ccccc2Cl)C1=O", "note": "[Clomazone, 2-[(2-chlorophenyl)methyl]-4,4-dimethyl-3-isoxazolidinone]", "values": [{"measurement": "% Visual Weed Control 22DAA CYPRO Observed", "setting": "[2]; Clomazone 112 g ai/ha alone", "value": 0, "unit": "%"}]}]}
